{
  "source": "ChEMBL document CHEMBL4190390",
  "about": "“Rational Design of Novel 1,3-Oxazine Based β-Secretase (BACE1) Inhibitors: Incorporation of a Double Bond To Reduce P-gp Efflux Leading to Robust Aβ Reduction in the Brain” (J Med Chem, 2018)",
  "key": {"[1]": {"experiment": "Dissociation constant, pKa of the compound by capillary electrophoresis method", "assay_type": "physicochemical"}, "[2]": {"experiment": "Drug degradation of the compound at 40 degC/89 % relative humidity", "assay_type": "physicochemical", "conditions": "read-out: Drug degradation"}},
  "data": [
    {"smiles": "C[C@@]1(c2ccccc2F)CCOC(N)=N1", "values": [
      {"measurement": "pKa", "setting": "[1]", "value": 9.8}
    ]},
    {"smiles": "C[C@@]1(c2cc(NC(=O)c3ccc(C#N)cn3)ccc2F)C=C(CF)OC(N)=N1", "values": [
      {"measurement": "degraded", "setting": "[2]", "value": 0.06, "unit": "%"}
    ]}
  ]
}
